Legend:
[1] = molecular target: CDK4/Cyclin D3 (Homo sapiens) (UniProt P11802+P30281); assay: (§1) Selectivity interaction (KinomeScan (DiscoverX)) EUB0001049a CDK4; type: protein-complex assay; conditions: at 1 µM
[2] = molecular target: Cyclin-dependent kinase 4/cyclin D1 (Homo sapiens) (UniProt P11802+P24385); assay: as §1; type: protein-complex assay; conditions: at 1 µM
[3] = molecular target: Histone-lysine N-methyltransferase SETDB1 (Homo sapiens) (UniProt Q15047); assay: Selectivity interaction (PWWP, WD40, and Tudor domain panel (DSLS measurements, literature)) EUB0000270b SETDB1
[4] = molecular target: TGF-beta receptor type-2 (Homo sapiens) (UniProt P37173); conditions: at 10 µM
Sequence of TGF-beta receptor type-2 (Homo sapiens) (P37173 whole entry): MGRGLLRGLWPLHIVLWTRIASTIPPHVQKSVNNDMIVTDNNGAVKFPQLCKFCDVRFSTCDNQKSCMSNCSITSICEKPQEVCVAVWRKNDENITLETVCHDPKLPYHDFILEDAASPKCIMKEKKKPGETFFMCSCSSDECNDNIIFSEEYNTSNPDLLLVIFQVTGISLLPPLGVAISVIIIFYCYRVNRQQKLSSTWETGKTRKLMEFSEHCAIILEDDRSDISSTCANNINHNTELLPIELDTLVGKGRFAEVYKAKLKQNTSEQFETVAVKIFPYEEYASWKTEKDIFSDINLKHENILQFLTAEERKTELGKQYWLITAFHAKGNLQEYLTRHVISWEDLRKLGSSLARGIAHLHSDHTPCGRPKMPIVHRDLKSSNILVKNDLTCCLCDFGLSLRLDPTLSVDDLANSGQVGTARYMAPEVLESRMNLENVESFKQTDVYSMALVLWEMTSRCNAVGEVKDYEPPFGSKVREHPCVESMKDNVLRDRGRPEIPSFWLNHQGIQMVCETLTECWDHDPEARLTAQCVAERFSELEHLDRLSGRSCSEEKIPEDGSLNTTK

[5] = molecular target: T1, Protein arginine N-methyltransferase 9 (Homo sapiens, UniProt Q6P2P2); assay: Selectivity interaction (Scintillation proximity assays) EUB0000255b PRMT9
T1 sequence (Q6P2P2 whole entry): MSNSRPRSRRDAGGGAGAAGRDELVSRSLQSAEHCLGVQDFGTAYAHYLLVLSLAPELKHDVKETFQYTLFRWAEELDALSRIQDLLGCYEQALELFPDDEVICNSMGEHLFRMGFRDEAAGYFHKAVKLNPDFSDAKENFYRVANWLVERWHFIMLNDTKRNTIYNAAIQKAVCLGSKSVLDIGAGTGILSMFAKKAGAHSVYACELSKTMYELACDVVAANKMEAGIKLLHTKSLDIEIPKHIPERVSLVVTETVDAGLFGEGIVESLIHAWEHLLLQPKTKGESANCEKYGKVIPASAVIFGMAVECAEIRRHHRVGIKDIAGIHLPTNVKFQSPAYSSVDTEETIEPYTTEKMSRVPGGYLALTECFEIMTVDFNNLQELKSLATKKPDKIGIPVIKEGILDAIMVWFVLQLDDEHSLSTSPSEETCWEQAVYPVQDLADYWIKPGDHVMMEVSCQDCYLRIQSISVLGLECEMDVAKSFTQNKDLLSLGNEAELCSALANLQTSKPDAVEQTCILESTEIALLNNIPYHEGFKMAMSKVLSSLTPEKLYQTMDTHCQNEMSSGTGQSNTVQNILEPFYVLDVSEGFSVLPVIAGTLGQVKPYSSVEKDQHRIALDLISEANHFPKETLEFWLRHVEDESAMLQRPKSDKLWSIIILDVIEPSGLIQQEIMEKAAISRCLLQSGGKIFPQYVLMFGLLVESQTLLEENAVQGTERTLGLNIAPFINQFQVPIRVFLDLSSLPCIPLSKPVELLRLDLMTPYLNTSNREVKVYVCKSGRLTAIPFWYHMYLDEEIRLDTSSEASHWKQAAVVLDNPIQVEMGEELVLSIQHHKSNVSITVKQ

[6] = molecular target: Protein kinase C theta type (Homo sapiens, UniProt Q04759); assay: Selectivity interaction (KinomeScan (DiscoverX)) EUB0000045b PRKCQ
Sequence of Protein kinase C theta type (Q04759 whole entry, looked up): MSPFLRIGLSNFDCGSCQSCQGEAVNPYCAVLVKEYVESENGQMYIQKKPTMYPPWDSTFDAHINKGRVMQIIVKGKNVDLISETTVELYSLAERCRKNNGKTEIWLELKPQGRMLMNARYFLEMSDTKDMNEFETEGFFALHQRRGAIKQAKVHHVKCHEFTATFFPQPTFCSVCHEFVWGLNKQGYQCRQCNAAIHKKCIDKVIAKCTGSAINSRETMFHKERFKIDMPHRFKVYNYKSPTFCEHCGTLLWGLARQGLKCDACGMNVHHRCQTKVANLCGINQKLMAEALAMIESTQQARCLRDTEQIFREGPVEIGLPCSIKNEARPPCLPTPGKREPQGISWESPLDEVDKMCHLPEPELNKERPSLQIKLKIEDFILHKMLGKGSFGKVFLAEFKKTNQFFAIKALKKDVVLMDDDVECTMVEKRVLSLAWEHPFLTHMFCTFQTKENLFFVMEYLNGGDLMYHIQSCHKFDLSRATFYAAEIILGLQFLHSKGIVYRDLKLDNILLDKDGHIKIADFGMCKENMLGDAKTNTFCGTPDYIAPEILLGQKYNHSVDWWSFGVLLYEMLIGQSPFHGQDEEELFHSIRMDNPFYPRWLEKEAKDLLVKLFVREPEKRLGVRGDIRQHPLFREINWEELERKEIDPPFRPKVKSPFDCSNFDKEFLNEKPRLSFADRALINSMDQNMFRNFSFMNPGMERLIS

[7] = molecular target: T2, Serine/threonine-protein kinase TAO3 (Homo sapiens) (UniProt Q9H2K8); assay: Selectivity interaction (Upstate Kinase Profiler service (Millipore)) EUB0000056c TAOK3; conditions: at 1 µM
T2 sequence (whole entry): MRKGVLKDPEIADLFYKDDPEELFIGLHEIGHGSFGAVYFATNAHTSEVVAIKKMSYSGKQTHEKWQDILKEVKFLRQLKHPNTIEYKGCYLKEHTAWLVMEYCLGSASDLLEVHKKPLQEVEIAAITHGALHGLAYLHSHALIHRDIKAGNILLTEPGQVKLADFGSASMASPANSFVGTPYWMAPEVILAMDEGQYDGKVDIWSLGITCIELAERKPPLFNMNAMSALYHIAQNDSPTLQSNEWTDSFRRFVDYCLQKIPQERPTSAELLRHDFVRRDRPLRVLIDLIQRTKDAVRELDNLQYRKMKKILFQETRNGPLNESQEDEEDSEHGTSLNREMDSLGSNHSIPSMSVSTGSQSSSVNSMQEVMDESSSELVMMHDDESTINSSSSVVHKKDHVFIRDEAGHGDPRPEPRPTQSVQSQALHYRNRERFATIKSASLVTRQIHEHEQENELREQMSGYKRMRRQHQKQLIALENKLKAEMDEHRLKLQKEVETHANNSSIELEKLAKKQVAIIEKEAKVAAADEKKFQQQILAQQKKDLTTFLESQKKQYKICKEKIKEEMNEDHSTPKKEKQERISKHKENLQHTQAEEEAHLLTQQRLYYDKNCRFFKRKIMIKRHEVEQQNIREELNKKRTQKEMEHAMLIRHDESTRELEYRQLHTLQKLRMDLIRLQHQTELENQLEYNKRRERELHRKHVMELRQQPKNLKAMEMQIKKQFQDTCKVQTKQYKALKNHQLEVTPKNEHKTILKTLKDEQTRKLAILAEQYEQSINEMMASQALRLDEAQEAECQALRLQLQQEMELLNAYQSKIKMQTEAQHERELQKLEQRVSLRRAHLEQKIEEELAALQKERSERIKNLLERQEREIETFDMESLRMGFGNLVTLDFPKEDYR

[8] = molecular target: T3, Protein kinase C epsilon type (Homo sapiens) (UniProt Q02156); assay: Selectivity interaction (SelectScreen profiling (Invitrogen)) EUB0000607a PRKCE; conditions: at 2 µM
T3 sequence (whole entry): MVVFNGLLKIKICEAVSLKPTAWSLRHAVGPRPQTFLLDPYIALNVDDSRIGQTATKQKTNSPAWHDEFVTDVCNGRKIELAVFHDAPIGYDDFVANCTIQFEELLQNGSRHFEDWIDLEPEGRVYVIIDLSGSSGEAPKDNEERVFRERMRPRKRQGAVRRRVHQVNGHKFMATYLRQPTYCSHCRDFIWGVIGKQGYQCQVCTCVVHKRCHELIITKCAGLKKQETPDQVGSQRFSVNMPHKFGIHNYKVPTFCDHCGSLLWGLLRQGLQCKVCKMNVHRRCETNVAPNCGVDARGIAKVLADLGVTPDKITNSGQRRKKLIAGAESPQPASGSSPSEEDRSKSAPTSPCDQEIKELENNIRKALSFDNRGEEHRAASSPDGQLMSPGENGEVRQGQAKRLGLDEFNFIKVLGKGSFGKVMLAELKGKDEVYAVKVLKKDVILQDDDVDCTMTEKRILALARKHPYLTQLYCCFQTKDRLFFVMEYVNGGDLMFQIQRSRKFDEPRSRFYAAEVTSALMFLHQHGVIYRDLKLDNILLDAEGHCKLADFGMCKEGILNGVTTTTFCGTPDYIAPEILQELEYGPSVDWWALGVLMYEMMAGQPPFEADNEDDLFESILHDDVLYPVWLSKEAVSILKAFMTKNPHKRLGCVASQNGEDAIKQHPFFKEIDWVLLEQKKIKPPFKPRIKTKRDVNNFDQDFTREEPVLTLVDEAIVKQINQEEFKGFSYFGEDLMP

[9] = molecular target: Phosphatidylinositol 4-phosphate 3-kinase C2 domain-containing subunit beta (Homo sapiens) (UniProt O00750); assay: Selectivity interaction (ProQinase) EUB0000171b PIK3C2B
Sequence of Phosphatidylinositol 4-phosphate 3-kinase C2 domain-containing subunit beta (Homo sapiens) (O00750 whole entry, the tested form may be a part): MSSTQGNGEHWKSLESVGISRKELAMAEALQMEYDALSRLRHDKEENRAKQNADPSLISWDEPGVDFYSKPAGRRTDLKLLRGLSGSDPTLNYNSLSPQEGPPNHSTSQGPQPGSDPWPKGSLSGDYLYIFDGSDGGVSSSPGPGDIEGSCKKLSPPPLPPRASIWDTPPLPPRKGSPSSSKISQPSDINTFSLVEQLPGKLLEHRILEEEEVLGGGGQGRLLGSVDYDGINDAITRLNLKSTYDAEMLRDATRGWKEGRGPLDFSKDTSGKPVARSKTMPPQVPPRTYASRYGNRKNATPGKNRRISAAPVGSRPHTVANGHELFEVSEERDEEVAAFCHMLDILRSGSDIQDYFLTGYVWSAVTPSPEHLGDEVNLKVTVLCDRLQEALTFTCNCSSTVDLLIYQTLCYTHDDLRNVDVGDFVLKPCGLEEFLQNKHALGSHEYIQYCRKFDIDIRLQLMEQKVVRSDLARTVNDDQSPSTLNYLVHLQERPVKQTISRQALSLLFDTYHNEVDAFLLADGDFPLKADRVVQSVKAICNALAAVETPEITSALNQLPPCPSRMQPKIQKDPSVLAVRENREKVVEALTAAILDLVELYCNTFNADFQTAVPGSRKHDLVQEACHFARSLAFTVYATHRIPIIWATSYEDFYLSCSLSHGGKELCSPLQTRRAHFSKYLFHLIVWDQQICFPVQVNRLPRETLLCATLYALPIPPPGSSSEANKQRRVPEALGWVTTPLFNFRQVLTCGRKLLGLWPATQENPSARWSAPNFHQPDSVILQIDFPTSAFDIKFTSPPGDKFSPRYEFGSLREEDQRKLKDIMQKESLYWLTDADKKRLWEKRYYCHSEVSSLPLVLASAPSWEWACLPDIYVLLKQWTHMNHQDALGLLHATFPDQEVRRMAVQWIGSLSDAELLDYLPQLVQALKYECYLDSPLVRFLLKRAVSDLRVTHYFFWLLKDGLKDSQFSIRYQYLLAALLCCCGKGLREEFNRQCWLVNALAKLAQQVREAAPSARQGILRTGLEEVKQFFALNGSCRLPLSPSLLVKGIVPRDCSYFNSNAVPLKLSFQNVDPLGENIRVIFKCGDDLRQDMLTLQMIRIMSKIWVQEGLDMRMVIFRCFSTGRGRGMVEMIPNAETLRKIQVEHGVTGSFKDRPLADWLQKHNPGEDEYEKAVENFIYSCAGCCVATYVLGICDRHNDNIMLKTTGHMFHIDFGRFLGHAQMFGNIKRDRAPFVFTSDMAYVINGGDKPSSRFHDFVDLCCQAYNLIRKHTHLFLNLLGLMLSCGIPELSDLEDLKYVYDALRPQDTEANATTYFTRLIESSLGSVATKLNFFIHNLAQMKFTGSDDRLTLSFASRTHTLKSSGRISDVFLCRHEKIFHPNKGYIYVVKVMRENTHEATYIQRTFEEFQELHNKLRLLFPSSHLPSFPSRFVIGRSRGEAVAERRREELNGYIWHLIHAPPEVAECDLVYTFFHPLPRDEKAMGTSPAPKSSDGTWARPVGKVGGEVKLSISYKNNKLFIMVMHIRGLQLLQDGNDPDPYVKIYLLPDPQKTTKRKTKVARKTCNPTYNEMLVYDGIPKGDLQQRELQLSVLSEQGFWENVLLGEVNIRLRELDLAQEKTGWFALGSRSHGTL

COc1cc(Nc2nc(C)cc(-c3cnn4nc(OC)ccc34)n2)cc(C(F)(F)F)c1
% of control [1]: 98% | % of control [2]: 100%

Cc1cc(CN)cc(C)c1-c1ncn(C)c1-c1cncn1C
dTagg [3]: 0.9 K

COCC(=O)NC/C=C/c1ccc2ncnc(Nc3ccc(Oc4ccc(C)nc4)c(C)c3)c2c1 [CP-724714]
% of control [4]: 94%

COCCN1CCC(c2cc(CN(C)C(=O)c3cccc(Oc4ccccc4)c3)ccn2)CC1
IC50 [5]: > 10 µM

C=CC(=O)Nc1cc(-n2c(=O)ccc3cnc4ccc(-c5ccc(NS(C)(=O)=O)cc5)cc4c32)ccc1C
% of control ([6]; at 1 µM): 100% | % of control ([6]; at 10 µM): 76%

Cc1ccc(-c2ccc3c(ccc4sc5c(c43)NC[C@@H](C)NC5=O)n2)cn1
% of inhibition [7]: 19%

CNC(=O)Nc1ccc(-c2nc(N3CC4CCC(C3)O4)c3cnn(C4CCC5(CC4)OCCO5)c3n2)cc1
% of inhibition [8]: 15%

C=CC(=O)Nc1cccc(C(=O)Nc2ccc(Nc3cc(-c4[nH]c(SC)nc4C)ccn3)cc2)c1
% of control ([9]; at 1 µM): 132% | % of control ([9]; at 5 µM): 133%

— ChEMBL document CHEMBL5465560, “Selectivity Literature for EUbOPEN Chemogenomic Library” (2024)
